In patent US6903183B1, “Compositions and methods for regulation of steroidogenesis” (Texas Tech University Health Services Center, priority 1996, dated 2005):
Entries after “also recorded” stand apart in the source; their conditions may differ. Each block holds one molecule with its values, some of them ahead of it. No end group written: not given here.

Experiments:
[1] = tested on: StAR protein; experiment: Immunoblot of StAR protein expression in H295R cells; assay type: cell-based, human; details: for amount of StAR protein: treatment of H295R cells with agonist
Experimental: (§1) FIG. 4. Effect of KN93 on agonist-stimulated aldosterone production and StAR protein expression in H295R cells. […] The medium aldosterone content was determined by R.I.A. and normalized to the tissue culture well protein content. Data points represent the mean ±SE of values from six separate culture wells expressed as fold increase over basal. Significant inhibition relative to the control response is indicated at *p<0.01. StAR protein was examined using equivalent amounts of total cellular lysate (30 μg) by immunoblot analysis as described in the Methods. Results are representative of those obtained from three separate experiments.
For each treatment, cells were solubilized as described above and an equivalent amount of protein (30 μg) for each sample were separated by SDS-PAGE (12.5%) and then electrophoretically transferred to polyvinylidene difluoride membrane as previously described (Clark et al (1994) J. Biol. Chem., 269:2831-322, reference specifically incorporated herein by reference). Immunoblot analysis was as described (Id) using a rabbit sera containing the specific StAR antipeptide antibody (see ANTIBODIES infra) as the primary label and a donkey anti-rabbit IgG conjugated with horseradish peroxidase (Amersham, Arlington Heights, Ill.). The specific signal was detected by chemiluminescence assays using the Renaissance kit from DuPont NEN (Boston, Mass.) and the StAR specific bands were quantitated by BioImage Visage 2000 computer-assisted image analysis (BioImage, Ann Arbor, Mich.). Different exposure times were used to insure linearity.

[2] = tested on: StAR protein; experiment: Immunoblot analysis of 30 kDa (StAR) protein in MA-10 cells; assay type: cell-based, mouse
Experimental: Immunoblot Analysis. Mitochondria were isolated from either MA-10 or COS 1 cells transfected with either pCMV or pCMV+30 kDa cDNA 48 hours post-transfection. For experiments in which progesterone production was measured (as described above), cells were solubilized directly in the well with 0.1% SDS, the cell homogenates were collected and combined from all 8 wells, and the protein was precipitated using trichloracetic acid. The protein was solubilized in sample buffer (25 mM Tris/Cl, pH 6.8, 1% SDS, 5% β-mercaptoethanol, 1 mM EDTA, 4% glycerol, and 0.01% bromophenol blue) and loaded onto a 12.5% SDS-PAGE minigel (Mini-Protein II System, Bio-Rad, Richmond, Calif.). […] The membrane was washed as before, and the specific signal was detected by chemiluminescence using the Renaissance kit from Du Pont-NEN.
In order to verify that the cDNA was being expressed in eukaryotic cells, COS 1 cells were used to transfect the pCMV+30 kDa cDNA since the pCMV plasmid can be replicated in these cells and approximately 80% of the cells are transfected with plasmid DNA based on the expression of reporter protein. Forty-eight hours post-transfection, mitochondria were isolated and the 30 kDa protein expression was determined by immunoblot analysis. […] In addition, a 36.5 kDa protein was detected in the COS 1 cells which would be consistent with the precursor protein. […]

[3] = tested on: StAR protein; experiment: Synthesis of StAR protein in MA-10 cells after CRH, dbcAMP or hCG; assay type: cell-based, mouse; details: for time of maximal response following stimulation: CRH at 1 μM
[4] = tested on: StAR mRNA; experiment: Northern blot analysis of StAR mRNA in MA-10 cells; assay type: cell-based, mouse
Experimental: MA-10 cells were stimulated with Bt2cAMP and StAR mRNA levels were determined by Northern blot analysis. Within 1 hour of Bt2cAMP stimulation, two major transcripts of approximately 3400 nt and 1600 nt, and one minor transcript of 2700 nt, were detected. […] Subsequent to the marked mRNA induction, the greatest induction (10x) in StAR protein was detected after 4 hours of Bt2cAMP stimulation by immunoblot analysis. Comparatively lower levels of StAR could be detected after 1 hour of hormone stimulation with maximal levels accumulated within 8 hours.

[5] = tested on: bovine zona glomerulosa cells; experiment: Cholesterol content of submitochondrial fractions (cholesterol oxidase assay); assay type: cell-based
Experimental: (§2) Freshly-prepared bovine zona glomerulosa cells were stimulated with Ang II (10 nM) or submitted to a cytosolic Ca^2+ clamp (600 nM) for 2 h. Mitochondria were isolated and subfractionated into outer membranes (OM), inner membranes (IM) and contact sites (CS). Cholesterol content was determined by the cholesterol oxidase assay.
as §2, with “gomerulosa” for “glomerulosa”, “h, as described in Example 9.” for “h.”, “assay, also as described in Example 9.” for “assay.”

[6] = tested on: StAR protein; experiment: Western blot of StAR protein in mitochondria of glomerulosa cells; assay type: cell-based, bovine
[7] = tested on: H295R cells; experiment: Agonist-stimulated aldosterone production (steroidogenesis) in H295R cells; assay type: cell-based, human
Experimental: as §1
The human adrenocortical carcinoma-derived cell line (H295R) was used. This cell line secretes multiple steroids, including aldosterone and cortisol. […]
Subcultured cells were maintained 24 hours in DME/F12 medium containing 0.2% calf serum, 0.01% BSA and antibiotics (low serum). […] The aldosterone and cortisol contents of medium recovered from each well were determined with aldosterone and cortisol standards prepared in low-serum medium by commercial aldosterone and cortisol radioimmunoassays (Diagnostic System Laboratories; Webster, Tex.). Results of aldosterone and cortisol assays were normalized to cellular protein per well, expressed as pmol per mg cell protein and transformed to percentage of the control response where indicated. […]

[8] = tested on: mitochondria isolated from MA-10 mouse Leydig tumor cells; experiment: In vitro reconstituted system: pregnenolone synthesis by isolated mitochondria; assay type: biochemical; details: protein added to isolated mitochondria
Source text: Rat heart mitochondria were used for the import assay with bovine StAR, indicating import of StAR is not dependent upon factors specific to mitochondria isolated from steroidogenic tissues. The ability of StAR to increase steroid production has also been confirmed in an in vitro reconstituted system.

[9] = biological target: protein complex purified from MA-10 cell mitochondrial membranes; experiment: competition against 35S-labeled StAR signal peptide on liposomes carrying the complex, gel filtration
[10] = tested on: Y-1 adrenal tumor cells; experiment: Overexpression of DAX-1 in Y-1 adrenal tumor cells; assay type: cell-based, mouse

Molecule: COC(=O)C1=C(C)NC(C)=C([N+](=O)[O-])C1c1ccccc1C(F)(F)F (stereo not drawn) [Bay K, (=)-Bay K 8644]
amount of StAR protein [1]: increased; also recorded: elevated

Molecule: CCCC(=O)Nc1ncnc2c1ncn2[C@@H]1O[C@@H]2COP(=O)(O)O[C@H]2[C@H]1OC(=O)CCC [Bt2cAMP, N^6, 2′-O-dibutyryladenosine-3′:5′-cyclic monophosphate]
time to maximal accumulated StAR protein levels [2]: ≤ 8 h
StAR protein induction ([2]; after 4 hours of stimulation): 10 x
concentration of maximal response (StAR synthesis) [3]: 1 µM
synthesis of the StAR protein [3]: dose-dependent increase
time of maximal response following stimulation [3]: 6 h
time to maximal StAR mRNA levels [4]: 6 h
StAR mRNA induction ([4]; after 2 hours of stimulation): 20 x

Molecule: [Ca+2] [Ca^2+]
cholesterol content of OM ([5]; cytosolic Ca2+ clamp 600 nM, 2 h, n=5): 54±24 % of controls
StAR protein in mitochondrial extracts ([6]; Ca2+ stimulation, cycloheximide-sensitive, n=5): 141±14 % of controls

Molecule: C[C@@H]1C[C@@H]([C@H](O)CC2CC(=O)NC(=O)C2)C(=O)[C@@H](C)C1 [Cycloheximide]
Ca2+-activated cholesterol transfer to IM [5]: significantly reduced
effect on Ang II increase of StAR in IM [6]: prevented

Molecule: COc1ccc(S(=O)(=O)N(CCO)c2ccccc2CN(C)CC=Cc2ccc(Cl)cc2)cc1 [KN93, 2-[N-(2-hydroxyethyl)-N-(4-methoxybenzenesulfonyl)]amino-N-(4-chlorocinnamyl)-N-methylbenzylamine]
induction of StAR protein by Ang II, K+, or Bay K ([1]; KN93 between 1 and 3 μM): did not affect
agonist-induction of StAR protein expression ([1]; co-treatment with KN93 3 μM): not affected
aldosterone production ([7]; KN93 3 μM): potently inhibited
block of steroidogenesis ([7]; KN93 between 1 and 3 μM): 60 to 80%

Molecule: [Cl-].[K+] [K^+, potassium chloride]
amount of StAR protein [1]: increased; also recorded: elevated

Molecule: CRH: Corticotropin-Releasing Hormone (SEEPPISLDLTFHLLREVLEMARAEQLAQQAHSNRKLMEII; ends and bridges not checked; UniProt P06850 154-194, looked up)
concentration of maximal response (StAR synthesis) [3]: 1 µM
synthesis of the StAR protein [3]: dose-dependent increase
time of maximal response following stimulation [3]: 4 h
level of StAR synthesis versus maximal doses of CRH or hCG alone ([3]; in the presence of hCG): higher level

Molecule: [Val^5]-Angiotensin II acetate (DRVYVHPF; also: acetate salt; UniProt P01019 25-32, looked up, variant I5V) [Ang II]
OM cholesterol ([5]; Ang II 10 nM, 2 h): No significant changes
cholesterol in contact sites (CS) ([5]; Ang II 10 nM, 2 h, n=3): 172±28 % of controls
amount of StAR protein [1]: increased; also recorded: elevated
StAR protein ([6]; Ang II stimulated glomerulosa cells, n=2): 157 % of controls
StAR in IM ([6]; Ang II stimulation): increased

B1: adrenodoxin: another mitochondrial imported protein (protein, UniProt P10109 61-184, looked up)
Adrenodoxin, mitochondrial: SSSEDKITVHFINRDGETLTTKGKVGDSLLDVVVENNLDIDGFGACEGTLACSTCHLIFEDHIYEKLDAITDEENDMLDLAYGLTDRSRLGCQICLTKSMDNMTVRVPETVADARQSIDVGKTS
pregnenolone synthesis [8]: not affected

reduction of total radioactivity in the liposome fraction [9]: 65%
Molecule: MFLATFKLCAGSSYRHMRNMKGLRHQ [StAR signal peptide (unlabeled, commercially synthesized)]

B2: DAX-1: transcription repressor, unusual member of the nuclear hormone receptor superfamily, overexpressed in Y-1 cells (protein, UniProt Q61066 1-472, looked up)
Nuclear receptor subfamily 0 …: MAGEDHPWQGSILYNLLMSAKQKHASQEEREVRLGAQCWGCACGAQPVLGGERLSGGQARSLLYRCCFCGENHPRQGGILYSMLTNARQPSVATQAPRARFGAPCWGCACGSAEPLVGREGLPAGQAPSLLYRCCFCGEEHPRQGSILYSLLTSAQQTHVSREAPEAHRRGEWWQLSYCTQSVGGPEGLQSTQAMAFLYRSYVCGEEQPQQISVASGTPVSADQTPATPQEQPRAPWWDASPGVQRLITLKDPQVVCEAASAGLLKTLRFVKYLPCFQILPLDQQLVLVRSCWAPLLMLELAQDHLHFEMMEIPETNTTQEMLTTRRQETEGPEPAEPQATEQPQMVSAEAGHLLPAAAVQAIKSFFFKCWSLNIDTKEYAYLKGTVLFNPDLPGLQCVKYIEGLQWRTQQILTEHIRMMQREYQIRSAELNSALFLLRFINSDVVTELFFRPIIGAVSMDDMMLEMLCAKL
StAR mRNA and protein synthesis [10]: inhibition
steroid synthesis [10]: complete inhibition
